*1 amine or outer side, *2 acyl side, *3 side chain or, on linkers, in order; H or OH if unused. Where a SMILES comes first, the peptide text is derived from it. Bridges are numbered along the chain shown (N, C = ends). [ ]: non-standard residue; d: D form. The star is where a group is joined. ξ: configuration not given here. Phe(3-OMe,4-CONHMs) = COc1cc(C[C@H](N)C(=O)O)ccc1C(=O)NS(C)(=O)=O; dhPhe(4-CONHMe,3-OMe) = CNC(=O)c1ccc(CC[C@@H](N)C(=O)O)cc1OC; X1 = COc1cc(C[C@H](N[*:1])C(=O)[*:2])ccc1C(=O)NO; X11 = CNC(=O)c1ccc(CCN(CC(=O)[*:2])[*:1])cc1OC; NMePhe(3-Cl) = CN[C@@H](Cc1cccc(Cl)c1)C(=O)O; X12 = O=C([C@H](CCCC(O)C(F)(F)F)N[*:1])[*:2]; Tyr(3-F) = N[C@@H](Cc1ccc(O)c(F)c1)C(=O)O; Tyr(3-OMe) = COc1cc(C[C@H](N)C(=O)O)ccc1O; NMehPhe = CN[C@@H](CCc1ccccc1)C(=O)O; Hyp = O=C(O)[C@@H]1C[C@@H](O)CN1; NMeF = CN[C@@H](Cc1ccccc1)C(=O)O; NMeGABA = CN(CCCC(=O)[*:2])[*:1]; NMeξIle = CC[C@H](C)C(NC)C(=O)O; Butyl(3-Me,3-OH) = CC(C)(O)CC*; NMeL = CN[C@@H](CC(C)C)C(=O)O; Thr(3ξ) = CC(O)[C@H](N)C(=O)O; NMeV = CN[C@H](C(=O)O)C(C)C; NMeAbu = CC[C@H](NC)C(=O)O; NMeA = CN[C@@H](C)C(=O)O; Piperidide = C1CCN(*)CC1; CH2CMe2OH = CC(C)(O)C*; X8 = C1COC[C@@H](C*)N1; NBuGly = CCCCNCC(=O)O; ξL = CC(C)CC(N)C(=O)O; Isopentyl = CC(C)CC*; Propyl(3-OH) = OCCC*; ξV = CC(C)C(N)C(=O)O; Ethyl(2-OH) = OCC*; Sar = CNCC(=O)O; tBu = CC(C)(C)*
Experiment: in vitro
Settings: human, Caco-2, Caco-2 (cm/sec)

Structure (SMILES) | Papp
CC[C@H](C)[C@@H]1NC(=O)[C@H](Cc2ccccc2)N(C)C(=O)[C@@H](C)NC(=O)C[C@@H](C(=O)N2CCCCC2)NC(=O)[C@H](CC(C)C)N(C)C(=O)[C@H](C)N(C)C(=O)[C@H](COC(C)(C)C)NC(=O)[C@H](C)N(C)C(=O)CN(C)C(=O)[C@H](Cc2ccc(O)cc2)NC(=O)[C@H](CC(C)C)N(C)C1=O [pd112] ([dA][NMeF]I[NMeL]Y[Sar][NMeA]S(tBu)[NMeA][NMeL]D-Piperidide; lactam N-11) | 0.11 ×10⁻⁶ cm/s
CCCCN1CC(=O)N(C)[C@@H](CC(C)C)C(=O)N[C@H](C(=O)N2CCCCC2)CC(=O)N(C)[C@@H](CC)C(=O)N[C@@H](CC(C)C)C(=O)N(C)[C@@H](CC(C)C)C(=O)N(C)[C@@H](Cc2ccccc2)C(=O)N[C@@H](COC[C@@H]2COCCN2)C(=O)N(C)[C@@H](CC)C(=O)N(C)[C@@H](CC(C)C)C(=O)N[C@@H]([C@@H](C)O)C1=O [AP242] ([NMeAbu]L[NMeL][NMeF]S(X8)[NMeAbu][NMeL]T[NBuGly][NMeL]D-Piperidide; lactam N-11) | 1.2 ×10⁻⁶ cm/s
CC(C)C[C@@H]1NC(=O)[C@H](C)N(C)C(=O)C[C@@H](C(=O)N2CCCCC2)NC(=O)[C@H](CC(C)C)N(C)C(=O)CN(C)C(=O)[C@H]([C@@H](C)O)NC(=O)[C@H](CC(C)C)N(C)C(=O)[C@H](CCc2ccccc2)N(C)C(=O)[C@H](COCCC(C)(C)O)NC(=O)[C@H](Cc2ccccc2)N(C)C(=O)[C@H](CC(C)C)N(C)C1=O [AP56] ([NMeA]L[NMeL][NMeF]S(Butyl(3-Me,3-OH))[NMehPhe][NMeL]T[Sar][NMeL]D-Piperidide; lactam N-11) | 1.3 ×10⁻⁶ cm/s
CC[C@H](C)[C@@H]1NC(=O)[C@H](CC(C)C)N(C)C(=O)[C@@H](CC(C)C)NC(=O)C[C@@H](C(=O)N2CCCCC2)NC(=O)[C@H](CC(C)C)N(C)C(=O)[C@H](Cc2ccccc2)N(C)C(=O)[C@H](COC(C)(C)C)NC(=O)CN(CCc2ccc(C(=O)NC)c(OC)c2)C(=O)CN(C)C(=O)[C@H]([C@@H](C)O)NC(=O)[C@H](CC(C)C)N(C)C1=O [AP221] ([dL][NMeL]I[NMeL]T[Sar][X11]S(tBu)[NMeF][NMeL]D-Piperidide; lactam N-11) | 0.28 ×10⁻⁶ cm/s
CC(C)C[C@H]1NC(=O)C[C@@H](C(=O)N2CCCCC2)NC(=O)[C@H](C)N(C)C(=O)[C@H](CC(C)C)N(C)C(=O)[C@H](COC(C)(C)C)NC(=O)[C@H](CC(C)C)N(C)C(=O)CN(C)C(=O)[C@H]([C@@H](C)O)NC(=O)[C@H](CC(C)C)N(C)C(=O)[C@H](Cc2ccc(O)c(F)c2)NC(=O)[C@H](Cc2ccccc2)N(C)C1=O [pd118] ([dL][NMeF][Tyr(3-F)][NMeL]T[Sar][NMeL]S(tBu)[NMeL][NMeA]D-Piperidide; lactam N-11) | 0.2 ×10⁻⁶ cm/s
CC(C)C[C@@H]1NC(=O)[C@H](CC(C)C)N(C)C(=O)C[C@@H](C(=O)N2CCCCC2)NC(=O)[C@H](CC(C)C)N(C)C(=O)CN(C)C(=O)[C@H]([C@@H](C)O)NC(=O)[C@H](CC(C)C)N(C)C(=O)[C@H](Cc2ccccc2)N(C)C(=O)[C@H](COCCCO)NC(=O)[C@H](Cc2ccccc2)N(C)C(=O)[C@H](CC(C)C)N(C)C1=O [AP94] ([NMeL]L[NMeL][NMeF]S(Propyl(3-OH))[NMeF][NMeL]T[Sar][NMeL]D-Piperidide; lactam N-11) | 0.35 ×10⁻⁶ cm/s
CC[C@H]1C(=O)N[C@@H](Cc2ccc(O)cc2)C(=O)N(C)[C@@H](CC(C)C)C(=O)N(C)[C@@H](CC(C)C)C(=O)N[C@@H](C(C)C)C(=O)N(C)[C@@H](Cc2ccccc2)C(=O)N(C)[C@@H](CC(C)C)C(=O)N[C@@H]([C@@H](C)O)C(=O)N(C)CC(=O)N(C)[C@@H](CC(C)C)C(=O)N[C@H](C(=O)N2CCCCC2)CC(=O)N1C [Compound F06] ([NMeAbu]Y[NMeL][NMeL]V[NMeF][NMeL]T[Sar][NMeL]D-Piperidide; lactam N-11) | 0.23 ×10⁻⁶ cm/s
CCCCN1CC(=O)N(C)[C@@H](CC(C)C)C(=O)N[C@@H](COC(C)(C)C)C(=O)N(C)[C@@H](CC(C)C)C(=O)N(C)[C@@H](CC)C(=O)N[C@H](C(=O)N2CCCCC2)CC(=O)N[C@H](CC(C)C)C(=O)N(C)[C@@H](Cc2ccccc2)C(=O)N[C@H](CCc2ccc(C(=O)NC)c(OC)c2)C(=O)N(C)[C@@H](CC(C)C)C(=O)N[C@@H]([C@@H](C)O)C1=O [AP209] ([dL][NMeF][dhPhe(4-CONHMe,3-OMe)][NMeL]T[NBuGly][NMeL]S(tBu)[NMeL][NMeAbu]D-Piperidide; lactam N-11) | 0.56 ×10⁻⁶ cm/s
CC[C@H](C)[C@@H]1NC(=O)[C@H](CC(C)C)N(C)C(=O)CCCN(C)C(=O)C[C@@H](C(=O)N2CCCCC2)NC(=O)[C@H](CC(C)C)N(C)C(=O)[C@H](CC(C)C)N(C)C(=O)[C@H]([C@@H](C)O)NC(=O)[C@H](CC(C)C)N(C)C(=O)[C@H](Cc2ccc(O)c(OC)c2)NC(=O)[C@H](CC(C)C)N(C)C(=O)[C@H](Cc2ccccc2)N(C)C1=O [Compound E03] ([NMeGABA][NMeL]I[NMeF][NMeL][Tyr(3-OMe)][NMeL]T[NMeL][NMeL]D-Piperidide; lactam N-11) | 0.18 ×10⁻⁶ cm/s
COc1cc(C[C@@H]2NC(=O)[C@H](C(C)C)N(C)C(=O)[C@H](CC(C)C)N(C)C(=O)C(CC(C)C)NC(=O)[C@H](CC(C)C)N(C)C(=O)[C@H](CC(C)C)N(C)C(=O)[C@H](C)NC(=O)[C@H](CC(C)C)N(C)C(=O)C[C@@H](C(=O)N3CCCCC3)NC(=O)[C@H](CC(C)C)N(C)C(=O)CN(C)C2=O)ccc1C(=O)NS(C)(=O)=O (stereo partly drawn) [AP142] ([NMeL]A[NMeL][NMeL][ξL][NMeL][NMeV][Phe(3-OMe,4-CONHMs)][Sar][NMeL]D-Piperidide; lactam N-11) | 0.63 ×10⁻⁶ cm/s
CC[C@H](C)[C@@H]1NC(=O)[C@H](Cc2ccccc2)N(C)C(=O)CN(C)C(=O)C[C@@H](C(=O)N2CCCCC2)NC(=O)[C@H](CC(C)C)N(C)C(=O)[C@H](COCCC(C)(C)O)NC(=O)[C@H](CC(C)C)N(C)C(=O)[C@H](CCc2ccccc2)N(C)C(=O)CN(C)C(=O)[C@H]([C@@H](C)O)NC(=O)[C@H](CC(C)C)N(C)C1=O [AP58] ([Sar][NMeF]I[NMeL]T[Sar][NMehPhe][NMeL]S(Butyl(3-Me,3-OH))[NMeL]D-Piperidide; lactam N-11) | 0.49 ×10⁻⁶ cm/s
CC(C)C[C@@H]1NC(=O)C[C@@H](C(=O)N2CCCCC2)NC(=O)[C@H](CC(C)C)N(C)C(=O)[C@H](Cc2ccccc2)NC(=O)[C@H](Cc2ccccc2)N(C)C(=O)[C@H]([C@@H](C)O)NC(=O)[C@H](CC(C)C)N(C)C(=O)[C@@H]2C[C@@H](OCCO)CN2C(=O)[C@H](CC(C)C)N(C)C(=O)[C@H](COC(C)(C)C)NC(=O)[C@H](CC(C)C)N(C)C1=O [AP235] (L[NMeL]S(tBu)[NMeL][Hyp](Ethyl(2-OH))[NMeL]T[NMeF]F[NMeL]D-Piperidide; lactam N-11) | 1.5 ×10⁻⁶ cm/s
CC[C@H](C)[C@@H]1NC(=O)[C@H](CC(C)C)N(C)C(=O)[C@@H](C)NC(=O)C[C@@H](C(=O)N2CCCCC2)NC(=O)[C@H](C(C)C)N(C)C(=O)[C@H](Cc2ccccc2)N(C)C(=O)[C@H](COC(C)(C)C)NC(=O)[C@H](CC(C)C)N(C)C(=O)CN(C)C(=O)[C@H](Cc2ccc(O)cc2)NC(=O)[C@H](C)N(C)C1=O [pd117] ([dA][NMeL]I[NMeA]Y[Sar][NMeL]S(tBu)[NMeF][NMeV]D-Piperidide; lactam N-11) | 0.56 ×10⁻⁶ cm/s
CC(C)CCOC[C@@H]1NC(=O)[C@H](Cc2ccccc2)N(C)C(=O)[C@H](Cc2ccccc2)N(C)C(=O)[C@H](COCC(C)(C)O)NC(=O)[C@H](CC(C)C)N(C)C(=O)CCCN(C)C(=O)C[C@@H](C(=O)N2CCCCC2)NC(=O)[C@H](CC(C)C)N(C)C(=O)[C@H](CC(C)C)N(C)C(=O)[C@H]([C@@H](C)O)NC(=O)[C@H](CC(C)C)N(C)C1=O [AP03] ([NMeGABA][NMeL]S(CH2CMe2OH)[NMeF][NMeF]S(Isopentyl)[NMeL]T[NMeL][NMeL]D-Piperidide; lactam N-11) | 0.46 ×10⁻⁶ cm/s
CC(C)C[C@@H]1NC(=O)[C@H](Cc2ccccc2)N(C)C(=O)C(C(C)C)NC(=O)C[C@@H](C(=O)N2CCCCC2)NC(=O)[C@H](Cc2ccccc2)N(C)C(=O)[C@H](Cc2ccccc2)N(C)C(=O)[C@H](COC(C)(C)C)NC(=O)[C@H](CC(C)C)N(C)C(=O)CN(C)C(=O)[C@H]([C@@H](C)O)NC(=O)[C@H](CC(C)C)N(C)C1=O (stereo partly drawn) [pd215] ([ξV][NMeF]L[NMeL]T[Sar][NMeL]S(tBu)[NMeF][NMeF]D-Piperidide; lactam N-11) | 1.2 ×10⁻⁶ cm/s
CC[C@H](C)[C@@H]1NC(=O)[C@H](CC(C)C)N(C)C(=O)CN(C)C(=O)C[C@@H](C(=O)N2CCCCC2)NC(=O)[C@H](CC(C)C)N(C)C(=O)[C@H](Cc2ccc(C(=O)NO)c(OC)c2)NC(=O)[C@H](CC(C)C)N(C)C(=O)[C@H](Cc2cccc(Cl)c2)N(C)C(=O)CN(C)C(=O)[C@H](C(C)O)NC(=O)[C@H](CC(C)C)N(C)C1=O (stereo partly drawn) [AP261] ([Sar][NMeL]I[NMeL][Thr(3ξ)][Sar][NMePhe(3-Cl)][NMeL][X1][NMeL]D-Piperidide; lactam N-11) | 0.02 ×10⁻⁶ cm/s

Same assay, conditions: human, Caco-2, Caco-2 (cm/sec) Papp

Structure (SMILES) | Papp
CC(C)C[C@@H]1NC(=O)[C@H](CC(C)C)N(C)C(=O)[C@@H](C)NC(=O)C[C@@H](C(=O)N2CCCCC2)NC(=O)[C@H](Cc2ccccc2)N(C)C(=O)[C@H](Cc2ccccc2)N(C)C(=O)[C@H](C)N(C)C(=O)[C@H]([C@@H](C)O)NC(=O)[C@H](Cc2ccccc2)N(C)C(=O)[C@H](COC(C)(C)C)NC(=O)[C@H](Cc2ccccc2)N(C)C1=O [pd234] ([dA][NMeL]L[NMeF]S(tBu)[NMeF]T[NMeA][NMeF][NMeF]D-Piperidide; lactam N-11) | 0.15 ×10⁻⁶ cm/s

Same assay, conditions: human, Caco-2, Caco-2 (membrane permeability)

Structure (SMILES) | Papp
CC[C@H](C)C1C(=O)NC(C(C)C)C(=O)N(C)CC(=O)N(C)[C@@H](CC(C)C)C(=O)N[C@H](C(=O)N2CCCCC2)CC(=O)N(C)[C@@H](C)C(=O)N[C@@H](CCCC(O)C(F)(F)F)C(=O)N(C)[C@@H](CC(C)C)C(=O)N(C)[C@@H](Cc2ccccc2)C(=O)N[C@@H](CC(C)C)C(=O)N(C)[C@@H](Cc2ccccc2)C(=O)N1C (stereo partly drawn) [Compound D15] ([NMeA][X12][NMeL][NMeF]L[NMeF][NMeξIle][ξV][Sar][NMeL]D-Piperidide; lactam N-11) | 0.61 ×10⁻⁶ cm/s
CCCCN1CC(=O)N(C)[C@@H](CC(C)C)C(=O)N[C@@H](CCCC(O)C(F)(F)F)C(=O)N(C)[C@@H](Cc2ccccc2)C(=O)N(C)[C@@H](C(C)C)C(=O)N[C@H](C(=O)N2CCCCC2)CC(=O)N[C@H](C(C)C)C(=O)N(C)[C@@H](Cc2ccccc2)C(=O)N[C@@H](CC(C)C)C(=O)N(C)[C@@H](CC(C)C)C(=O)N[C@@H]([C@@H](C)O)C1=O (stereo partly drawn) [Compound D09] ([dV][NMeF]L[NMeL]T[NBuGly][NMeL][X12][NMeF][NMeV]D-Piperidide; lactam N-11) | 0.13 ×10⁻⁶ cm/s
